These results are taken from US20230089557A1, “METHODS OF TREATING DLBCL USING BTK INHIBITORS AND COMBINATIONS THEREOF” (BEIGENE SWITZERLAND GMBH, priority 2020, published 2023).

This test has as its system R/R non-GCB DLBCL. Kind of test: Four Compound 1 studies pooled (monotherapy and combination), response by BCL2/MYC expression. The format is in vivo, human. To be noted: for BOR / BOR (responders/patients) / OS / PFS: mono- and combination therapies pooled; for overall survival / progression-free survival / ORR / ORR (responders/patients): two monotherapies and two combination therapies. On the procedure:
A total of 121 patients with R/R non-GCB DLBCL were recruited in four Compound 1 treatment studies that were conducted at a similar time period. Two of the four studies were Compound 1 monotherapy (n=79) and two were Compound 1 combined with an anti-CD20 antibody therapy (n=42). Similar inclusion and exclusion criteria and response evaluation criteria were used across all studies. Fifty-six non-GCB patients were further subtyped by gene expression profiling (GEP) using the HTG EdgeSeq DLBCL Cell of Origin Assay. The expression of approximately 90 lymphoma-associated genes from the HTG GEP assay were analyzed by R package limma for correlation with response to Compound 1 treatment. Seventy-seven patient samples were tested by next-generation sequencing (NGS) with a panel of genes. Chi-square test was used to evaluate the correlation between mutations and the objective response rate (ORR).
Monotherapy schedule 1: Compound 1 was administered orally every day at 160 mg twice daily (BID) in 28-day cycles in patients with R/R non-GCB DLBCL
Monotherapy schedule 2: Compound 1 was administered orally every day in each cycle at 160 mg BID in 28-day cycles in patients with R/R non-GCB DLBCL.
Combination therapy schedule 1: Compound 1 was administered orally every day in each cycle at 160 mg BID in 28-day cycles, in combination with obinutuzumab, in patients with R/R non-GCB DLBCL. Obinutuzumab was administered for up to 6 cycles consistent with the U.S. label regimen (100 mg at Day 1 Cycle 1, 1000 mg at Day 8 and Day 15, 900 mg at Day 2 Cycle 1 followed by 1000 mg on day one of cycles 2-6).
Combination therapy schedule 2: Compound 1 was administrated orally every day in each cycle at 160 mg BID in 28-day cycles, in combination with rituximab, in patients with R/R non-GCB DLBCL. And, rituximab was administered at 375 mg/m2 intravenously on Cycle 1 Days 1, 8, 15, 22, and on Day 1 of Cycles 4, 6, 8, 10. Compound 1 was administered at least 30 minutes prior to the initiation of the rituximab infusion.
A total of 121 patients with non-GCB DLBCL were included for response evaluation. 79 patients were subjected to Compound 1 monotherapies (Monotherapy Schedule 1 or 2), and 42 patients were subjected to Compound 1 plus anti-CD20 antibody Combination therapy (Combination therapy schedule 1 or 2).
56 non-GCB patients were further subtyped by gene expression profiling (GEP) using the HTG EdgeSeq DLBCL Cell of Origin Assay. The expression of approximately 90 lymphoma-associated genes from the HTG GEP assay were analyzed by R package limma for correlation with response to zanubrutinib treatment.

[1] abbreviates: MYC and BCL2 double expressor (DE) patients.

Take `C=CC(=O)N1CCC([C@@H]2CCNc3c(C(N)=O)c(-c4ccc(Oc5ccccc5)cc4)nn32)CC1` [Compound 1, (S)-7-(1-acryloylpiperidin-4-yl)-2-(4-phenoxyphenyl)-4,5,6,7-tetra-hydropyrazolo[1,5-a]pyrimidine-3-carboxamide]: for the setting “BCL2-high patients”, the BOR amounted to 57%, the “BOR (responders/patients)” value was 16/28, the OS was determined as 10 m and the PFS stood at 5.3 m. Under “BCL2-low patients”, the BOR is on record as 21%, the “BOR (responders/patients)” value is 6/28, the OS came to 6 m and the PFS is given as 2.8 m. Besides, under “DE patients”, the overall survival is given as 10 months and the progression-free survival is reported as 5.4 months. For the same molecule, under setting [1], the ORR was 61% and the “ORR (responders/patients)” value is recorded as 11/18. Moreover, for the setting “MYC-high patients”, the BOR came out at 46%, the “BOR (responders/patients)” value is on record as 13/28, the OS is 10 m and the PFS is 5.4 m. For the setting “MYC-low patients”, the BOR turned out to be 32%, the “BOR (responders/patients)” value is reported as 9/28, the OS is recorded as 7 m and the PFS came out at 2.9 m. Where the note is “non-DE patients”, the ORR is listed as 29%, the “ORR (responders/patients)” value is recorded as 11/38, the overall survival was 7 months and the progression-free survival stood at 3.6 months.
